BindingDB's records for doi:10.7270/Q2HM5725 (Burnham Center For Chemical Genomics, 2012)

These molecules were tested against Neuropilin-1 (Homo sapiens, UniProt O14786).
Chain of Neuropilin-1 (O14786 whole entry): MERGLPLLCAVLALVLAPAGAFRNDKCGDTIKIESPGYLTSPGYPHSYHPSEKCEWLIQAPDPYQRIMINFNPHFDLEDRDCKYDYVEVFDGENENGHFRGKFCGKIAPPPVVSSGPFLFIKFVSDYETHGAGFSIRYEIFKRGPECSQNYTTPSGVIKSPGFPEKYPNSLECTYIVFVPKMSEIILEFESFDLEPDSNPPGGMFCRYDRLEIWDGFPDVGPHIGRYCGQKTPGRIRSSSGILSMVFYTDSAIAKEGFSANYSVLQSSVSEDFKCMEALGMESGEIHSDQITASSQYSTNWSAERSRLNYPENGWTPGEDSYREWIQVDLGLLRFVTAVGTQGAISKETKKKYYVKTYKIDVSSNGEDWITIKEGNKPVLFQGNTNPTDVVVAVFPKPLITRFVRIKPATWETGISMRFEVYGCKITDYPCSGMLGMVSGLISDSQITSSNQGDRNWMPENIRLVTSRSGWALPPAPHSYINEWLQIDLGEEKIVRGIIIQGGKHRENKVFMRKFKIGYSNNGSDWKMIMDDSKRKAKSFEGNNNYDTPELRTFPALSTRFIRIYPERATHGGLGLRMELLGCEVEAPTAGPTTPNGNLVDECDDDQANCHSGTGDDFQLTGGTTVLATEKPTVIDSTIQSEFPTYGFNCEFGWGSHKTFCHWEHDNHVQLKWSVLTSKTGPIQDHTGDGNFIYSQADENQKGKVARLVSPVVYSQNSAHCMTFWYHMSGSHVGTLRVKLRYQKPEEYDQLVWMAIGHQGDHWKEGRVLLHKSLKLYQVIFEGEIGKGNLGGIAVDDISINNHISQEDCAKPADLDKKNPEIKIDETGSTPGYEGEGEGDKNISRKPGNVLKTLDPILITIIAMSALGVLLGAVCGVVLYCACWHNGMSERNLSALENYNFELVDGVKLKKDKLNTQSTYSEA

Row | SMILES | IC50 [µM]
1 | CCOc1ccc(-n2c(O)cc(N3CCN(c4ccc(Cl)cc4)CC3)c2O)cc1 [3-[4-(4-Chloro-phenyl)-piperazin-1-yl]-1-(4-ethoxy-phenyl)-pyrrolidine-2,5-dione] | > 95
2 | O=C(Cc1ncnc2c1ncn2C1OC(CO)C(O)C1O)c1ccccc1 (configuration not stated) | > 95
3 | CC1(c2ccccc2)CC(C)(C)N2C(=O)/C(=C3/NC(=S)NC3=O)c3cccc1c32 (configuration not stated) [SMR000221518] | > 95
4 | Cc1ccc(N=CC(S(=O)(=O)c2ccccc2)S(=O)(=O)c2ccccc2)cc1 | > 95
5 | CCOC(=O)C1C(=O)C(=O)N(c2ccccc2)C1c1cccc([N+](=O)[O-])c1 (configuration not stated) [ethyl 2-(3-nitrophenyl)-4-oxidanyl-5-oxidanylidene-1-phenyl-2H-pyrrole-3-carboxylate] | > 95
6 | CCC1=C(OC(=O)N(CC)CC)N2C(=O)O/C(=N\CC3CC3)[C@]2(Cc2ccccc2)[C@H]2C1=CC[C@H]1C(=O)N(C)C(=O)[C@H]12 [SMR000440396] | > 95
7 | COc1cccc(N2[C@@H](CC(C)=O)c3ccc(C=CC(C)=O)cc3S2(=O)=O)c1 [(E)-4-[(3S)-2-(3-methoxyphenyl)-1,1-bis(oxidanylidene)-3-(2-oxidanylidenepropyl)-3H-1,2-benzothiazol-6-yl]but-3-en-2-one] | > 95
8 | C=CCOc1ccc(C2C(C(=O)c3c(C)[nH]c(C(=O)OC)c3C)C(=O)C(=O)N2CCN(C)C)cc1 (configuration not stated) [MLS000081294] | > 95
9 | COc1ccc2c(c1)N(C)/C(=C1/S/C(=N\Cc3ccccc3)N(c3ccccc3)C1=O)S2 [(5Z)-5-(5-methoxy-3-methyl-1,3-benzothiazol-2-ylidene)-3-phenyl-2-(phenylmethyl)imino-1,3-thiazolidin-4-one] | > 95
10 | COc1ccc(-n2c(O)cc(SCCc3nc4ccccc4[nH]3)c2O)cc1 [SMR000200354] | > 95
11 | CC(C)C1=NC(=O)NC2CCCCC12 (configuration not stated) [SMR000060291] | > 95
12 | CCC1=C(OC(=O)N(CC)CC)N2C(=O)O/C(=N\CC(=O)OC)[C@]2(C)[C@H]2C1=CC[C@H]1C(=O)N(CC)C(=O)[C@H]12 [SMR000440357] | > 95
13 | CCC(NCCc1ccccc1)=C1C(=O)NC(=O)N(C2CCCCC2)C1=O [MLS000557927] | > 95
14 | Cn1cccc1C1Nc2ccccc2N=C2CC(C)(C)CC(=O)C21 (configuration not stated) [MLS000533228] | > 95
15 | CCC1=C(OC(=O)N(CC)CC)N2C(=O)O/C(=N\CC(=O)OC)[C@]2(Cc2ccccc2)[C@H]2C1=CC[C@H]1C(=O)N(CC(=O)OC)C(=O)[C@H]12 [MLS000877797] | > 95
16 | CCOC(=O)C1=C(C)N=C2CCCC(=O)C2C1c1cn(Cc2ccc(Cl)cc2Cl)nc1-c1ccccc1 (configuration not stated) [4-[1-[(2,4-dichlorophenyl)methyl]-3-phenyl-4-pyrazolyl]-2-methyl-5-oxo-4,6,7,8-tetrahydro-1H-quinoline-3-carboxylic acid ethyl ester] | > 95
17 | C=CCN1C(=O)C2(c3ccccc3OC(=N)C2C(=O)OCC)c2c1c1ccccc1oc2=O (configuration not stated) [2-amino-2',4'-dioxo-1'-prop-2-enyl-3-spiro[1-benzopyran-4,3'-[1]benzopyrano[4,3-b]pyrrole]carboxylic acid ethyl ester] | > 95
18 | COC(=O)C1=C(C)N=C(C)C(C(=O)OC)C1C(=O)OC(C)C(=O)c1ccccc1 (configuration not stated) [2,6-dimethyl-1,4-dihydropyridine-3,4,5-tricarboxylic acid O3,O5-dimethyl ester O4-(1-oxo-1-phenylpropan-2-yl) ester] | > 95
19 | Cc1cc2c(cc1C)NC(c1nc3ccccc3[nH]1)C1C(=O)CC(C)(C)CC1=N2 (configuration not stated) [SMR000120514] | > 95
20 | Cc1ccc2c(c1)=C(c1ccncc1)NN=C(c1ccc(F)cc1)N=2 [MLS000692744] | > 95
21 | CCC1=C(OC(=O)N(CC)CC)N2C(=O)O/C(=N\CCOC)[C@]2(Cc2ccccc2)[C@H]2C1=CC[C@H]1C(=O)N(CC(=O)OC)C(=O)[C@H]12 [SMR000440375] | > 95
22 | Cc1ccc(CN=Nc2nc3ccccc3[nH]2)s1 [SMR000261490] | > 95
